# Reference: patent US20190083498A1, “THERAPIES FOR HEMATOLOGIC MALIGNANCIES” (GILEAD CALISTOGA LLC, priority 2008, published 2019)
# Assays:
# [1] = tested on: CLL cells with or without StromaNKTert; assay: CLL cell viability/apoptosis in stromal co-culture, Annexin V/PI FACS; assay type: cell-based, human; settings: 100 nM alone; two patients; 24 hours
# Protocol: CLL cell and stromal cell co-cultures: CLL cells were cultured under standardized conditions on stromal cell lines or primary NLC. Briefly, stromal cells were seeded one day prior to each experiment onto 24-well plates (Corning Life Sciences) at a concentration of 3×10^5 cells/mL/well and incubated at 37° C. in 5% CO2. Stromal cell confluence was confirmed by phase contrast microscopy, and CLL cells were then added onto the stromal cell layer at a concentration of 3×10^6 cells/mL. Cultures were then treated with compounds for the specified time periods. CLL cells were removed for analysis by gentle pipetting with media, and were then washed in PBS prior to analysis. A 24-hour co-culture time point was used unless otherwise indicated.
# Cell viability testing and reagents: CLL cell viability was determined by analysis of Annexin V-FITC (BD Biosciences, San Diego, Calif.) and Propidium Iodine (PI) (Sigma) by FACS.
# To determine whether PI3K inhibition increased the sensitivity of stroma-exposed CLL cells by increasing priming, PB-derived CLL cells cultured with or without StromaNKTert cells for 24 hours and were examined using Annexin-PI and BH3 profiling. […] Stromal co-culture of four CLL patient samples led to protection from apoptosis in untreated cells.
# INA-6 and LB cells = assay: Growth of MM cells treated with 3-MA; assay type: cell-based, human; settings: up to 100 μM; 24 h
# Protocol: P110 δ positive LB cells (♦) were treated with 3-MA (0-100 μM) for 24 h. Data represent means (±SD) of triplicate cultures.
# LB cells = assay: Subcutaneous human MM xenograft model; assay type: in vivo
# Protocol: CB17 SCID mice (48-54 days old) were purchased from Charles River Laboratories (Wilmington, Mass.). All animal studies were conducted according to protocols approved by the Animal Ethics Committee of the Dana-Farber Cancer Institute. Mice were inoculated subcutaneously in the right flank with 3×10^6 LB cells in 100 μL RPMI-1640. When tumors were palpable, mice were assigned into the treatment groups receiving 10 mg/kg or 30 mg/kg gavages twice daily; and 7 mice in the control group receiving vehicle alone. Caliper measurements of the longest perpendicular tumor diameters were performed every alternate day to estimate the tumor volume using the following formula representing the 3D volume of an ellipse: 4/3× (width/2)2× (length/2). Animals were sacrificed when tumors reached 2 cm or the mice appeared moribund. Survival was evaluated from the first day of treatment until death. […] The images were captured with a canon IXY digital 700 camera. Ex vivo analysis of tumor images was captured with a LEICA DM IL microscope and LEICA DFC300 FX camera at 40 u/0.60 (Leica, Heidelberg, Germany).
# Mean tumor volume was calculated as in Materials and Methods, FIG. 36A. Error bars represent SD (±).
# Tumors harvested from Compound II (30 mg/kg) treated mouse (right panel) and control mouse (left panel) were subjected to immuno-histochemistric analysis using CD31 and P-AKT Abs. CD31 and P-AKT positive cells are dark brown, FIG. 36D.
# Survival was evaluated from the first day of treatment until sacrifice using Kaplan-Meier curves, FIG. 36C.
# Tumor tissues were harvested from mice treated with control vehicle or Compound II (30 mg/kg). Protein levels of phosphorylated of PDK-1 and AKT (Ser473) were determined by western blotting of cell lysates, FIG. 36E. Actin was used as a loading control.
# INA-6 cells = assay: SCID-hu model, INA-6 cells in human bone chip, serum shuIL-6R ELISA; assay type: in vivo, SCID mice; settings: 10 or 30 mg/kg daily for 4 weeks
# Protocol: Human fetal bone grafts were implanted into CB17 SCID-mice (SCID-hu). Four weeks following bone implantation, 2.5×10^6 INA-6 cells were injected directly into the human BM cavity in the graft in a final volume of 100 μl of RPMI-1640 medium. An increase in the levels of soluble human IL-6 receptor (shulL-6R) from INA-6 cells was used as an indicator of MM cell growth and burden of disease in SCID-hu mice. Mice developed measurable serum shulL-6R approximately 4 weeks following INA-6 cell injection, and then received either 10 or 30 mg/kg drug or vehicle alone daily for […]. Blood samples were collected and assessed for shulL-6R levels using an enzyme-linked immunosorbent assay (ELISA, R&D Systems. Minneapolis Minn.).
# Growth of INA-6 cells engrafted in human bone chips in SCID mice was monitored by serial serum measurements of shulL-6R. […] Error bars indicate SD (±).
# In order to examine the activity of compound II on MM cell growth in the context of the human BM microenvironment in vivo, a SCID-hu model was used in which IL-6 dependent INA-6 cells are directly injected into a human bone chip implanted subcutaneously in SCID-mice. This model recapitulates the human BM microenvironment with human IL-6/BMSC-dependent growth of INA-6 human MM cells. These SCID-hu mice were treated with compound II or vehicle alone daily for 4 weeks, and serum shulL-6R monitored as a marker tumor burden. […]
# Class III PI3K hVPS34 = Class III PI3K hVPS34 (Homo sapiens, UniProt Q8NEB9); settings: read-out: Class III PI3K, IC50 hVPS34; InvitroGen Adapta assay
# Chain of Class III PI3K hVPS34 (Q8NEB9 whole entry): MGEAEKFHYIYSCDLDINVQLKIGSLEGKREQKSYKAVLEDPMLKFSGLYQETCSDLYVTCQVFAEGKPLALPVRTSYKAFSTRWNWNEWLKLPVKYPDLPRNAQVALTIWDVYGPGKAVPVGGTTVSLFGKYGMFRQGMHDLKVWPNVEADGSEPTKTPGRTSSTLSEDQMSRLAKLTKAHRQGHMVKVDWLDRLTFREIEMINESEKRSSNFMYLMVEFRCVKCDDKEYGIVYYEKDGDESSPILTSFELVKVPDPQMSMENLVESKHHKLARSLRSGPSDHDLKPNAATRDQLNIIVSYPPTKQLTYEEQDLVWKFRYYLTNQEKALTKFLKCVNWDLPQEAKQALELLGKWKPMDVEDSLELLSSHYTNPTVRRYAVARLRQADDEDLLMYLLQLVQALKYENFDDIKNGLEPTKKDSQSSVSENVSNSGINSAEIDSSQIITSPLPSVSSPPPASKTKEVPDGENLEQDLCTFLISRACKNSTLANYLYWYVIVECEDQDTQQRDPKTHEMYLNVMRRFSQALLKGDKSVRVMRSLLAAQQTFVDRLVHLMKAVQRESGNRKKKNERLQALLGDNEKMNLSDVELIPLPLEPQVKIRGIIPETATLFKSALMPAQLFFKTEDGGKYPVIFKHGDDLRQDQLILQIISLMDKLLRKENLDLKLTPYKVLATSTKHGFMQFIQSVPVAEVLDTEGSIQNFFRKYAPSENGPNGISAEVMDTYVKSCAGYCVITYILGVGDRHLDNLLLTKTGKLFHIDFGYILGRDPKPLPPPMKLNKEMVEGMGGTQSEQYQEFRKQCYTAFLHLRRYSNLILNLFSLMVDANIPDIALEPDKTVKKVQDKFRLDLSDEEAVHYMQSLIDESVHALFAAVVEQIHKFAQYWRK
# class II PI3K CIIbeta = class II PI3K CIIbeta (Homo sapiens, UniProt O00750); assay: IC50 profile across kinases, InvitroGen Adapta assay; assay type: biochemical
# Chain of class II PI3K CIIbeta (O00750 whole entry): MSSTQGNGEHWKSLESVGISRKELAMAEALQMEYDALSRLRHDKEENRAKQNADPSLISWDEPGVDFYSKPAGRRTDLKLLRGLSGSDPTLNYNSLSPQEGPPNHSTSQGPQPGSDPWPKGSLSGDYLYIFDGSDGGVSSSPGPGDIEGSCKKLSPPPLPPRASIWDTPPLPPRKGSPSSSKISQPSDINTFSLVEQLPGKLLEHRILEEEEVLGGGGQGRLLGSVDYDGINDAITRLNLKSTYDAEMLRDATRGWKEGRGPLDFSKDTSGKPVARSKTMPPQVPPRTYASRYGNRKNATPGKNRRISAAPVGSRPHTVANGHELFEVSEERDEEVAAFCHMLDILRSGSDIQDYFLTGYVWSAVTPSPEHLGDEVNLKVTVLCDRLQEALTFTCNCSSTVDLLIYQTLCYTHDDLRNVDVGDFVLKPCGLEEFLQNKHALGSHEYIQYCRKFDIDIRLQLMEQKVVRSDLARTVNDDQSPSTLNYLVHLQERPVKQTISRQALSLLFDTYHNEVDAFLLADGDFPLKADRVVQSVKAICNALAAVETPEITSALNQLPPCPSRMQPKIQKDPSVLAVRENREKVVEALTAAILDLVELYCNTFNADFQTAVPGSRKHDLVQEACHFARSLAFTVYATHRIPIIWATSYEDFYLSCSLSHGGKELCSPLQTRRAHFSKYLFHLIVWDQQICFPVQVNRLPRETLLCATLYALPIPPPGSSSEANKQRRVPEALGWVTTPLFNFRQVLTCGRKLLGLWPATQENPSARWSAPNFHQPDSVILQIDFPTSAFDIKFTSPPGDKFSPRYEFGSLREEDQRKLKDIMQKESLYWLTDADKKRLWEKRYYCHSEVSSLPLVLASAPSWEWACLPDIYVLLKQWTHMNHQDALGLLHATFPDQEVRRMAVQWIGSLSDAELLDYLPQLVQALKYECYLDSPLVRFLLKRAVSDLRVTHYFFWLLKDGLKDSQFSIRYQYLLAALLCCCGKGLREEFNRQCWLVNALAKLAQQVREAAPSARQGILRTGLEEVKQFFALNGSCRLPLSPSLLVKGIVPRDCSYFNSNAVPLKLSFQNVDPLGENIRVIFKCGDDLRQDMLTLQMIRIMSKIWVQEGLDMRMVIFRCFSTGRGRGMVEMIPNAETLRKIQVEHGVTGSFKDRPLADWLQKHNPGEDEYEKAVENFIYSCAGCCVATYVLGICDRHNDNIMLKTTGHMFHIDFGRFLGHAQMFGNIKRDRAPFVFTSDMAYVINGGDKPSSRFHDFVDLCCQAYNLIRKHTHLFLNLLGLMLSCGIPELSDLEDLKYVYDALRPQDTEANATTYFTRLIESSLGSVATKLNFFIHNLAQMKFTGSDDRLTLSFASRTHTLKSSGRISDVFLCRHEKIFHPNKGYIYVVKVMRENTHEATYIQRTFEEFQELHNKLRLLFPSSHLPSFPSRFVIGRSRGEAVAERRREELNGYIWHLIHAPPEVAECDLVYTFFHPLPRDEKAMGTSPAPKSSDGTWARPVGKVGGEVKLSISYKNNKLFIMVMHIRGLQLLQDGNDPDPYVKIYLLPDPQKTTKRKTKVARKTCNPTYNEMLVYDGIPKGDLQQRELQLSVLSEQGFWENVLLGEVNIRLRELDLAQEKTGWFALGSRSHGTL
smiles,measurement,setting,value
"CN(C)CC[C@H](CSc1ccccc1)Nc1ccc(S(=O)(=O)NC(=O)c2ccc(N3CCN(Cc4ccccc4-c4ccc(Cl)cc4)CC3)cc2)cc1[N+](=O)[O-] [ABT-737, reference compound]","CLL cell viability in stromal co-culture, single agent",[1],profound stroma-mediated resistance
"Cn1cnc(N)c2ncnc1-2 [Compound 3-MA, 3-Methyladenine]",cytotoxicity in INA-6 and LB cells,INA-6 and LB cells,No cytotoxicity
"CC(Nc1ncnc2[nH]cnc12)c1nc2ccc(F)cc2c(=O)n1-c1ccccc1 (stereo not drawn) [Compound II, 2-(1-(9H-purin-6-ylamino)ethyl)-6-fluoro-3-phenylquinazolin-4(3H)-one]",MM tumor growth,"LB cells; 10 mg/kg or 30 mg/kg orally twice a day, n=7",significantly reduced
same,CD31 positive cells and microvessel density,LB cells; 30 mg/kg,significantly decreased
same,p-Akt and p-PDK-1 in tumor,"LB cells; 30 mg/kg, immunohistochemical and immunoblot analysis",significantly inhibited
same,body weight,"LB cells; mouse, in vivo",did not affect body weight
same,tumor growth (serum shuIL-6R),INA-6 cells,significantly inhibited tumor growth
Cn1c(=O)n(-c2ccc(C(C)(C)C#N)cc2)c2c3cc(-c4cnc5ccccc5c4)ccc3ncc21 [NVP-BEZ-235],IC50,Class III PI3K hVPS34,6 nM
same,IC50,class II PI3K CIIbeta,3 nM
